Patent US20040076974A1, “Liver necrosis predictive genes” (priority 2002, published 2004)
Several values for one entry are separate records, joined by “and”; a condition that tells them apart may be missing. Equal values may be shown once. Read-outs that look alike come from different tables or passages of the source.

Columns and labels:
[1] = test system: toxicologically relevant rat genes (rat CT array)
[2] = test system: Sprague Dawley rats
Outline: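 Toxicity calls (necrosis present or absent at 72 h) and histopathology scores were correlated with tissue gene expression from Crl:CD Sprague Dawley rats. Animals, usually 3 treated with compound by i.p. route and 3 given vehicle, were killed at 6, 24 or 72 h and tissues frozen immediately in liquid nitrogen.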

[3] = 24 h, treatment/control, dose 2, listed as CHEX
[4] = 24 h, dose 20, ratio treatment/control
[5] = 24 h, dose 20, ratio treatment/control, listed as PHEN

C[C@@H]1C[C@@H]([C@H](O)CC2CC(=O)NC(=O)C2)C(=O)[C@@H](C)C1 [cycloheximide]
Aflatoxin B1 aldehyde reductase expression ([1]; 24 h): 0.3081 and 0.5569 | 3-hydroxyisobutyrate dehydrogenase expression [1, 3]: 0.7822 and 0.6854 | 14-3-3 zeta expression [1, 3]: 1.308 and 1.217 | 17-beta hydroxysteroid dehydrogenase, type 2 expression [1, 3]: 0.8086 and 0.8289 | 60S ribosomal protein L6 expression [1, 3]: 4.046 and 3.164 | ATPase inhibitor (rat mitochondrial IF1 protein) expression [1, 3]: 1.104 | Alpha 1 - inhibitor III expression [1, 3]: 0.1985 and 0.3033 | Alpha-2-macroglobulin expression [1, 3]: 8.537 and 10.8864 | Bax (alpha) expression [1, 3]: 3.909 and 3.079 | Beta-actin expression [1, 3]: 1.582 | Calpactin I heavy chain expression [1, 3]: 1.21 and 1.278 | Carbamyl phosphate synthetase I expression [1, 3]: 2.339 and 1.425 | Carbonic anhydrase III expression [1, 3]: 0.09817 and 0.117 | Cathepsin L, sequence 2 expression [1, 3]: 3.293 and 1.752 | Dynamin-1 (D100) expression [1, 3]: 0.7964 and 0.6968 | Epidermal growth factor expression [1, 3]: 0.7851 and 0.8391 | Equilbrative nitrobenzylthioinosine-sensitive nucleoside transporter expression [1, 3]: 0.434 and 0.4974 | Fas antigen expression [1, 3]: 1.655 and 1.544 | Gadd45 expression [1, 3]: 1.068 and 0.9225 | Gadd153 expression [1, 3]: 2.348 and 2.179 | Gamma-actin, cytoplasmic expression [1, 3]: 2.831 and 2.8 | Glucose-regulated protein 78 expression [1, 3]: 1.943 | Hepatic lipase expression [1, 3]: 0.425 and 0.4085 | ID-1 expression [1, 3]: 1.831 and 1.476 | Insulin-like growth factor I expression [1, 3]: 0.632 and 0.7238 | Insulin-like growth factor binding protein 1 expression [1, 3]: 1.891 | Insulin-like growth factor binding protein 3 expression [1, 3]: 0.6015 and 0.8706 | Integrin beta1 expression [1, 3]: 1.973 and 1.549 | L-gulono-gamma-lactone oxidase expression [1, 3]: 0.1815 and 0.3251 | Matrin F/G expression [1, 3]: 0.6684 and 0.8266 | Monocyte chemotactic protein receptor (CCR2) expression [1, 3]: 1.356 | Organic anion transporter 3 expression [1, 3]: 0.6196 and 0.8226 | Organic cation transporter 3 expression [1, 3]: 3.288 and 2.799 | Ornithine decarboxylase expression [1, 3]: 1.809 and 2.529 | PAR interacting protein expression [1, 3]: 2.494 and 1.775 | Phase-1 RCT 252 expression [1, 3]: 2.109 | Phase-1 RCT-15 expression [1, 3]: 2.098 | Phase-1 RCT-36 expression [1, 3]: 0.9535 | Phase-1 RCT-38 expression [1, 3]: 0.8074 and 1.436 | Phase-1 RCT-40 expression [1, 3]: 0.5868 and 0.6253 | Phase-1 RCT-48 expression [1, 3]: 0.8259 | Phase-1 RCT-50 expression [1, 3]: 3.394 and 1.867 | Phase-1 RCT-78 expression [1, 3]: 0.6678 and 0.6463 | Phase-1 RCT-83 expression [1, 3]: 0.7709 and 0.5883 | Phase-1 RCT-88 expression [1, 3]: 0.5622 and 0.699 | Phase-1 RCT-89 expression [1, 3]: 0.3912 and 0.666 | Phase-1 RCT-92 expression [1, 3]: 0.5483 and 0.6236 | Phase-1 RCT-102 expression [1, 3]: 0.1629 and 0.3219 | Phase-1 RCT-117 expression [1, 3]: 0.5435 and 0.8114 | Phase-1 RCT-128 expression [1, 3]: 0.7358 and 0.5601 | Phase-1 RCT-137 expression [1, 3]: 0.897 | Phase-1 RCT-144 expression [1, 3]: 1.698 and 1.552 | Phase-1 RCT-145 expression [1, 3]: 1.962 and 1.531 | Phase-1 RCT-152 expression [1, 3]: 3.068 and 2.149 | Phase-1 RCT-179 expression [1, 3]: 1.874 and 1.726 | Phase-1 RCT-180 expression [1, 3]: 1.992 and 1.731 | Phase-1 RCT-182 expression [1, 3]: 0.648 and 0.4739 | Phase-1 RCT-189 expression [1, 3]: 0.7556 and 0.7413 | Phase-1 RCT-207 expression [1, 3]: 3.54 and 2.206 | Phase-1 RCT-213 expression [1, 3]: 2.298 and 1.558 | Phase-1 RCT-241 expression [1, 3]: 2.805 and 1.626 | Phase-1 RCT-256 expression [1, 3]: 0.7478 | Phase-1 RCT-264 expression [1, 3]: 0.3258 and 0.288 | Phase-1 RCT-270 expression [1, 3]: 0.3824 and 0.3779 | Phase-1 RCT-271 expression [1, 3]: 0.6863 and 0.7351 | Phase-1 RCT-288 expression [1, 3]: 0.7066 and 0.6813 | Phase-1 RCT-291 expression [1, 3]: 0.9117 | Phase-1 RCT-295 expression [1, 3]: 1.809 and 1.772 | Phase-1 RCT-296 expression [1, 3]: 0.1325 and 0.1028 | Ribosomal protein L13A expression [1, 3]: 3.222 and 2.597 | Ribosomal protein S17 expression [1, 3]: 3.701 and 3.311 | Sodium/bile acid cotransporter expression [1, 3]: 0.2803 and 0.3733 | Transthyretin expression [1, 3]: 0.3341 and 0.2879 | Ubiquitin conjugating enzyme (RAD 6 homologue) expression [1, 3]: 1.788 and 1.624 | c-jun expression [1, 3]: 1.591 and 1.111 | c-myc expression [1, 3]: 1.683 and 1.143 | Paraoxonase 1 expression ([1]; rat, in vivo): 0.4607 and 0.4822 | Liver Toxicity Necrosis Classification ([2]; 72 h, dose 0.5): no | Liver Toxicity Necrosis Classification ([2]; 72 h; dose 2; animals 2257-2259): no | Liver Toxicity Necrosis Classification ([2]; compound-dose group CHEX 0.5; at 72 h): no | Liver Toxicity Necrosis Classification ([2]; compound-dose group CHEX 2; at 72 h): no | Liver Toxicity Necrosis Classification ([2]; compound-dose group at 72 h, dose 0.5): no | Liver Toxicity Necrosis Classification ([2]; compound-dose group at 72 h, dose 2): no | Liver Toxicity Necrosis Classification ([2]; compound-dose group at 72 h; dose 2): no | Liver Necrosis ([2]; rat, intraperitoneal, dose 0.5 mg/kg, 72 hours after treatment): no | Score (histopathology liver necrosis severity score) ([2]; rat, intraperitoneal, dose 0.5 mg/kg, 72 hours; 1 = not remarkable, 2 and higher increasing severity): 1 | Liver Necrosis ([2]; rat, intraperitoneal, dose 2 mg/kg, 72 hours after treatment): no | Score (histopathology liver necrosis severity score) ([2]; rat, intraperitoneal, dose 2 mg/kg, 72 hours; 1 = not remarkable, 2 and higher increasing severity): 1

NNc1ccccc1 [phenylhydrazine]
Aflatoxin B1 aldehyde reductase ([1]; 24 h): 0.6558 and 0.8284 | Bax (alpha) [1, 4]: 1.114 | Proliferating cell nuclear antigen gene [1, 4]: 0.9203 | 3-hydroxyisobutyrate dehydrogenase [1, 5]: 0.9143 and 0.9803 | 14-3-3 zeta [1, 5]: 1.282 and 1.371 | 60S ribosomal protein L6 [1, 5]: 0.8081 and 0.8097 | ATPase inhibitor (rat mitochondrial IF1 protein) [1, 5]: 0.5186 and 0.4781 | Alpha 1 - inhibitor III [1, 5]: 0.5075 and 0.4307 | Alpha-2-macroglobulin [1, 5]: 0.5649 and 0.479 | Bax (alpha) [1, 5]: 1.115 | Beta-actin [1, 5]: 1.318 and 1.347 | Calpactin I heavy chain [1, 5]: 1.093 and 1.232 | Carbamyl phosphate synthetase I [1, 5]: 0.8997 and 0.8454 | Carbonic anhydrase III [1, 5]: 2.069 and 2.604 | Carbonyl reductase [1, 5]: 1.013 and 1.035 | Cathepsin L, sequence 2 [1, 5]: 1.124 | Cofilin [1, 5]: 1.075 and 0.9686 | Cyclin G [1, 5]: 1.06 and 1.18 | DNA polymerase beta [1, 5]: 0.6488 and 0.5275 | Dynamin-1 (D100) [1, 5]: 0.9853 and 0.8394 | Endogenous retroviral sequence, 5′ and 3′ LTR [1, 5]: 1.197 and 1.103 | Enolase alpha [1, 5]: 0.7101 and 0.7241 | Epidermal growth factor [1, 5]: 0.7579 and 0.6975 | Equilbrative nitrobenzylthioinosine-sensitive nucleoside transporter [1, 5]: 0.6046 and 0.5693 | Extracellular-signal-regulated kinase 1 [1, 5]: 1.377 and 1.805 | Fas antigen [1, 5]: 1.2 and 1.204 | Gadd45 [1, 5]: 1.142 and 1.49 | Gadd153 [1, 5]: 1.087 and 1.085 | Gamma-actin, cytoplasmic [1, 5]: 0.7836 and 0.7811 | Glucose-regulated protein 78 [1, 5]: 0.8506 and 0.7386 | Heme oxygenase [1, 5]: 1.498 and 1.908 | Hepatic lipase [1, 5]: 0.5441 and 0.4993 | ID-1 [1, 5]: 1.157 and 1.321 | IgE binding protein [1, 5]: 1.098 and 1.166 | IkB-a [1, 5]: 0.8328 and 0.7684 | Insulin-like growth factor I [1, 5]: 0.8551 and 0.7944 | Insulin-like growth factor binding protein 1 [1, 5]: 1.056 and 0.9665 | Insulin-like growth factor binding protein 3 [1, 5]: 0.8807 and 0.8119 | Integrin beta1 [1, 5]: 1.12 | L-gulono-gamma-lactone oxidase [1, 5]: 1.301 and 1.543 | Liver fatty acid binding protein [1, 5]: 0.6905 and 0.5494 | MAP kinase kinase [1, 5]: 1.023 and 1.164 | Macrophage inflammatory protein-2 alpha [1, 5]: 1.132 and 1.347 | Matrin F/G [1, 5]: 1.071 and 0.9981 | Matrix metalloproteinase-1 [1, 5]: 1.581 and 1.897 | Melanoma-associated antigen ME491 [1, 5]: 0.9841 | Monocyte chemotactic protein receptor (CCR2) [1, 5]: 1.3 and 1.499 | Multidrug resistant protein-2 [1, 5]: 1.286 and 1.334 | N-hydroxy-2-acetylaminofluorene sulfotransferase (ST1C1) [1, 5]: 0.5527 and 0.5091 | Nucleoside diphosphate kinase beta isoform [1, 5]: 1.1 | Organic anion transporter 3 [1, 5]: 1.058 | Organic cation transporter 3 [1, 5]: 0.9117 and 0.8387 | Ornithine decarboxylase [1, 5]: 1.479 and 1.694 | PAR interacting protein [1, 5]: 0.9791 and 0.9269 | Phase-1 RCT 252 [1, 5]: 0.7562 | Phase-1 RCT-15 [1, 5]: 3.553 and 2.982 | Phase-1 RCT-39 [1, 5]: 0.9896 | Phase-1 RCT-49 [1, 5]: 0.869 and 0.8084 | Phase-1 RCT-50 [1, 5]: 1.203 | Phase-1 RCT-68 [1, 5]: 1.203 | Phase-1 RCT-78 [1, 5]: 1.292 | Phase-1 RCT-83 [1, 5]: 0.5669 and 0.5525 | Phase-1 RCT-88 [1, 5]: 2.1 | Phase-1 RCT-89 [1, 5]: 0.8262 | Phase-1 RCT-92 [1, 5]: 2.107 | Phase-1 RCT-102 [1, 5]: 1.096 | Phase-1 RCT-137 [1, 5]: 0.4276 and 0.4239 | Phase-1 RCT-144 [1, 5]: 0.8929 | Phase-1 RCT-152 [1, 5]: 0.7359 and 0.7085 | Phase-1 RCT-168 [1, 5]: 0.7781 | Phase-1 RCT-181 [1, 5]: 1.504 | Phase-1 RCT-182 [1, 5]: 0.6963 and 0.8836 | Phase-1 RCT-189 [1, 5]: 0.7721 and 0.6053 | Phase-1 RCT-191 [1, 5]: 0.6314 and 0.7152 | Phase-1 RCT-192 [1, 5]: 0.9295 | Phase-1 RCT-225 [1, 5]: 1 | Phase-1 RCT-264 [1, 5]: 0.5562 and 0.6031 | Phase-1 RCT-270 [1, 5]: 0.728 | Phase-1 RCT-271 [1, 5]: 1.199 | Phase-1 RCT-288 [1, 5]: 0.8205 and 0.8069 | Phase-1 RCT-295 [1, 5]: 1.57 | Proliferating cell nuclear antigen gene [1, 5]: 1.089 | Ribosomal protein L13A [1, 5]: 1.024 | Ribosomal protein S8 [1, 5]: 0.7171 and 0.6731 | Ribosomal protein S17 [1, 5]: 0.7324 and 0.6158 | Senescence marker protein-30 [1, 5]: 0.7313 and 0.841 | Sodium/bile acid cotransporter [1, 5]: 0.6926 and 0.7429 | Superoxide dismutase Mn [1, 5]: 1.092 and 1.114 | Thymosin beta-10 [1, 5]: 0.7195 and 0.7559 | Transthyretin [1, 5]: 0.4631 and 0.4873 | Ubiquitin conjugating enzyme (RAD 6 homologue) [1, 5]: 0.7763 and 0.6535 | Uncoupling protein 2 [1, 5]: 0.9638 and 0.9416 | Zinc finger protein [1, 5]: 0.8961 and 0.8505 | c-jun [1, 5]: 1.14 and 1.384 | c-myc [1, 5]: 1.235 and 1.141 | p53 [1, 5]: 1.067 and 1.196 | {Ribosomal protein L6} [1, 5]: 1.368 and 1.181 | Paraoxonase 1 ([1]; rat, in vivo): 0.4982 and 0.4752 | Liver Toxicity Necrosis Classification ([2]; rat, in vivo): no | Liver Necrosis ([2]; rat, intraperitoneal, dose 20 mg/kg, 72 hours after treatment): no | Score (histopathology liver necrosis severity score) ([2]; rat, intraperitoneal, dose 20 mg/kg, 72 hours; 1 = not remarkable, 2 and higher increasing severity): 1 | Liver Necrosis ([2]; rat, intraperitoneal, dose 80 mg/kg, 72 hours after treatment): no | Score (histopathology liver necrosis severity score) ([2]; rat, intraperitoneal, dose 80 mg/kg, 72 hours; 1 = not remarkable, 2 and higher increasing severity): 1
